Data taken from US20240293413A1, “COMPOUND AND METHOD FOR TREATING CHEMOTHERAPY-RELATED GASTROINTESTINAL SIDE EFFECTS” (ONQUALITY PHARMACEUTICALS CHINA LTD., priority 2021, published 2024).

Experiments:
Assay type in all cases: in vivo
[1] = system: Chemotherapeutic agent-caused diarrhea models of Balb/c mice; test: Examples 1-229 (Table 3): oral CDK inhibitor, relief of diarrhea caused by a chemotherapeutic agent;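 note: percent of treated mice whose diarrhea grade fell below chemotherapy-group average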
[2] = system: diarrhea caused by a chemotherapeutic agent in Balb/c mice; test: Examples 230-271 (Table 4): oral CDK inhibitor, relief of diarrhea caused by a chemotherapeutic agent
Method in brief: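 Balb/c mice, 10 per group (vehicle, chemotherapeutic agent, CDK inhibitor plus chemotherapeutic); CDK inhibitor dosed intragastrically before the chemotherapeutic agent by injection or gavage. Diarrhea graded daily.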

[3] = system: diarrhea caused by a chemotherapeutic agent in Balb/c mice; test: Examples 343-381 (Table 6): oral versus intravenous CDK inhibitor, relief of diarrhea caused by a chemotherapeutic agent;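 note: percent of treated mice whose diarrhea grade fell below chemotherapy-group average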
Method in brief: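 Balb/c mice (10 per group) received the CDK inhibitor orally or by tail-vein injection, or vehicle, followed by a chemotherapeutic agent or its solvent. Diarrhea grade was scored daily.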

## CC(=O)c1c(C)c2cnc(Nc3ccc(N4CCNCC4)cn3)nc2n(C2CCCC2)c1=O [Palbociclib]
[1]; Example 1, Fluorouracil (5-Fu) intraperitoneal injection 125 mg/kg single, CDK inhibitor oral 150 mg/kg single 0.5 h before, cycle 10 days
  Relative remission rate (%): 20%
[1]; Example 2, Fluorouracil (5-Fu) intraperitoneal injection 125 mg/kg single, CDK inhibitor oral 150 mg/kg single 1 h before, cycle 10 days
  Relative remission rate (%): 20%
[1]; Example 3, Fluorouracil (5-Fu) intraperitoneal injection 125 mg/kg single, CDK inhibitor oral 150 mg/kg single 2 h before, cycle 10 days
  Relative remission rate (%): 30%
[1]; Example 4, Fluorouracil (5-Fu) intraperitoneal injection 125 mg/kg single, CDK inhibitor oral 150 mg/kg single 3 h before, cycle 10 days
  Relative remission rate (%): 40%
[1]; Example 5, Fluorouracil (5-Fu) intraperitoneal injection 125 mg/kg single, CDK inhibitor oral 150 mg/kg single 4 h before, cycle 10 days
  Relative remission rate (%): 40%
[1]; Example 6, Fluorouracil (5-Fu) intraperitoneal injection 125 mg/kg single, CDK inhibitor oral 150 mg/kg single 5 h before, cycle 10 days
  Relative remission rate (%): 50%
[1]; Example 7, Fluorouracil (5-Fu) intraperitoneal injection 125 mg/kg single, CDK inhibitor oral 150 mg/kg single 6 h before, cycle 10 days
  Relative remission rate (%): 50%
[1]; Example 8, Fluorouracil (5-Fu) intraperitoneal injection 125 mg/kg single, CDK inhibitor oral 150 mg/kg single 7 h before, cycle 10 days
  Relative remission rate (%): 60%
[1]; Example 9, Fluorouracil (5-Fu) intraperitoneal injection 125 mg/kg single, CDK inhibitor oral 150 mg/kg single 8 h before, cycle 10 days
  Relative remission rate (%): 60%
[1]; Example 10, Fluorouracil (5-Fu) intraperitoneal injection 125 mg/kg single, CDK inhibitor oral 150 mg/kg single 9 h before, cycle 10 days
  Relative remission rate (%): 50%
[1]; Example 11, Fluorouracil (5-Fu) intraperitoneal injection 125 mg/kg single, CDK inhibitor oral 150 mg/kg single 10 h before, cycle 10 days
  Relative remission rate (%): 60%
[1]; Example 12, Fluorouracil (5-Fu) intraperitoneal injection 125 mg/kg single, CDK inhibitor oral 150 mg/kg single 11 h before, cycle 10 days
  Relative remission rate (%): 70%
[1]; Example 13, Fluorouracil (5-Fu) intraperitoneal injection 125 mg/kg single, CDK inhibitor oral 150 mg/kg single 12 h before, cycle 10 days
  Relative remission rate (%): 80%
[1]; Example 14, Fluorouracil (5-Fu) intraperitoneal injection 125 mg/kg single, CDK inhibitor oral 12.5 mg/kg single 13 h before, cycle 10 days
  Relative remission rate (%): 40%
[1]; Example 15, Fluorouracil (5-Fu) intraperitoneal injection 125 mg/kg single, CDK inhibitor oral 25 mg/kg single 13 h before, cycle 10 days
  Relative remission rate (%): 80%
[1]; Example 16, Fluorouracil (5-Fu) intraperitoneal injection 125 mg/kg single, CDK inhibitor oral 50 mg/kg single 13 h before, cycle 10 days
  Relative remission rate (%): 60%
[1]; Example 17, Fluorouracil (5-Fu) intraperitoneal injection 125 mg/kg single, CDK inhibitor oral 100 mg/kg single 13 h before, cycle 10 days
  Relative remission rate (%): 80%
[1]; Example 18, Fluorouracil (5-Fu) intraperitoneal injection 125 mg/kg single, CDK inhibitor oral 150 mg/kg single 13 h before, cycle 10 days
  Relative remission rate (%): 80%
[1]; Example 19, Fluorouracil (5-Fu) intraperitoneal injection 125 mg/kg single, CDK inhibitor oral 250 mg/kg single 13 h before, cycle 10 days
  Relative remission rate (%): 60%
[1]; Example 20, Fluorouracil (5-Fu) intraperitoneal injection 125 mg/kg single, CDK inhibitor oral 150 mg/kg single 14 h before, cycle 10 days
  Relative remission rate (%): 70%
[1]; Example 21, Fluorouracil (5-Fu) intraperitoneal injection 125 mg/kg single, CDK inhibitor oral 150 mg/kg single 16 h before, cycle 10 days
  Relative remission rate (%): 60%
[1]; Example 22, Fluorouracil (5-Fu) intraperitoneal injection 125 mg/kg single, CDK inhibitor oral 150 mg/kg single 18 h before, cycle 10 days
  Relative remission rate (%): 60%
[1]; Example 23, Fluorouracil (5-Fu) intraperitoneal injection 125 mg/kg single, CDK inhibitor oral 150 mg/kg single 20 h before, cycle 10 days
  Relative remission rate (%): 50%
[1]; Example 24, Fluorouracil (5-Fu) intraperitoneal injection 125 mg/kg single, CDK inhibitor oral 150 mg/kg single 22 h before, cycle 10 days
  Relative remission rate (%): 40%
[1]; Example 25, Fluorouracil (5-Fu) intraperitoneal injection 125 mg/kg single, CDK inhibitor oral 150 mg/kg single 24 h before, cycle 10 days
  Relative remission rate (%): 40%
[1]; Example 26, Fluorouracil (5-Fu) intraperitoneal injection 125 mg/kg single, CDK inhibitor oral 150 mg/kg single 48 h before, cycle 10 days
  Relative remission rate (%): 0%
[1]; Example 44, Fluorouracil (5-Fu) oral administration 250 mg/kg single, CDK inhibitor oral 125 mg/kg single 4 h before, cycle 10 days
  Relative remission rate (%): 60%
[1]; Example 88, Oxaliplatin intravenous injection 17.5 mg/kg single, CDK inhibitor oral 150 mg/kg single 6 h before, cycle 8 days
  Relative remission rate (%): 50%
[1]; Example 129, Irinotecan (CPT-11) intravenous injection 200 mg/kg single, CDK inhibitor oral 200 mg/kg single 14 h before, cycle 7 days
  Relative remission rate (%): 60%
[1]; Example 166, Docetaxel (DTX) intramuscular injection 20 mg/kg single, CDK inhibitor oral 150 mg/kg single 5 h before, cycle 8 days
  Relative remission rate (%): 80%
[1]; Example 228, Etoposide 60 mg/kg and Carboplatin 5 mg/kg intraperitoneal injection single, CDK inhibitor oral 150 mg/kg single, 12 h before, 10 days
  Relative remission rate (%): 60%
[2]; Example 230, Doxorubicin (Dox) intraperitoneal injection 10 mg/kg single, CDK inhibitor oral 150 mg/kg single, 0.5 h before, cycle 12 days
  Relative remission rate: 50%
[2]; Example 231, Doxorubicin (Dox) intraperitoneal injection 10 mg/kg single, CDK inhibitor oral 150 mg/kg single, 4 h before, cycle 12 days
  Relative remission rate: 70%
[2]; Example 232, Doxorubicin (Dox) intraperitoneal injection 10 mg/kg single, CDK inhibitor oral 150 mg/kg single, 8 h before, cycle 12 days
  Relative remission rate: 70%
[2]; Example 233, Doxorubicin (Dox) intraperitoneal injection 10 mg/kg single, CDK inhibitor oral 150 mg/kg single, 12 h before, cycle 12 days
  Relative remission rate: 80%
[2]; Example 234, Doxorubicin (Dox) intraperitoneal injection 10 mg/kg single, CDK inhibitor oral 150 mg/kg single, 24 h before, cycle 12 days
  Relative remission rate: 50%
[2]; Example 235, Doxorubicin (Dox) intraperitoneal injection 10 mg/kg single, CDK inhibitor oral 150 mg/kg single, 48 h before, cycle 12 days
  Relative remission rate: 0%
[2]; Example 249, Methotrexate (MTX) oral administration 400 mg/kg single, CDK inhibitor oral 125 mg/kg single, 4 h before, cycle 7 days
  Relative remission rate: 60%
[2]; Example 250, Methotrexate (MTX) oral administration 400 mg/kg single, CDK inhibitor oral 125 mg/kg single, 24 h before, cycle 7 days
  Relative remission rate: 60%
[2]; Example 260, Cytarabine (Ara-C) intravenous injection 600 mg/kg single, CDK inhibitor oral 150 mg/kg single, 6 h before, cycle 8 days
  Relative remission rate: 60%
[2]; Example 271, Vinorelbine (NVB) intraperitoneal injection 10 mg/kg single, CDK inhibitor oral 200 mg/kg single, 12 h before, cycle 7 days
  Relative remission rate: 70%
[3]; Example 343, Etoposide intravenous injection 75 mg/kg single, CDK inhibitor intravenous injection 150 mg/kg single, 0.5 h before chemotherapeutic agent, cycle 8 days
  Relative remission rate: 10%
[3]; Example 343, Etoposide intravenous injection 75 mg/kg single, CDK inhibitor oral 150 mg/kg single, 0.5 h before chemotherapeutic agent, cycle 8 days
  Relative remission rate: 40%
[3]; Example 344, Etoposide intravenous injection 75 mg/kg single, CDK inhibitor intravenous injection 150 mg/kg single, 4 h before, cycle 8 days
  Relative remission rate: 10%
[3]; Example 344, Etoposide intravenous injection 75 mg/kg single, CDK inhibitor oral 150 mg/kg single, 4 h before, cycle 8 days
  Relative remission rate: 80%
[3]; Example 345, Etoposide intravenous injection 75 mg/kg single, CDK inhibitor intravenous injection 150 mg/kg single, 8 h before, cycle 8 days
  Relative remission rate: 10%
[3]; Example 345, Etoposide intravenous injection 75 mg/kg single, CDK inhibitor oral 150 mg/kg single, 8 h before, cycle 8 days
  Relative remission rate: 60%
[3]; Example 346, Etoposide intravenous injection 75 mg/kg single, CDK inhibitor intravenous injection 150 mg/kg single, 12 h before, cycle 8 days
  Relative remission rate: 20%
[3]; Example 346, Etoposide intravenous injection 75 mg/kg single, CDK inhibitor oral 150 mg/kg single, 12 h before, cycle 8 days
  Relative remission rate: 60%
[3]; Example 347, Etoposide intravenous injection 75 mg/kg single, CDK inhibitor intravenous injection 150 mg/kg single, 24 h before, cycle 8 days
  Relative remission rate: 10%
[3]; Example 347, Etoposide intravenous injection 75 mg/kg single, CDK inhibitor oral 150 mg/kg single, 24 h before, cycle 8 days
  Relative remission rate: 60%
[3]; Example 357, Etoposide and cisplatin intravenous injection 50 (E) 5 (Cis) mg/kg single, CDK inhibitor intravenous injection 125 mg/kg single, 4 h before, cycle 7 days
  Relative remission rate: 20%
[3]; Example 357, Etoposide and cisplatin intravenous injection 50 (E) 5 (Cis) mg/kg single, CDK inhibitor oral 125 mg/kg single, 4 h before, cycle 7 days
  Relative remission rate: 70%
[3]; Example 358, Etoposide and cisplatin intravenous injection 50 (E) 5 (Cis) mg/kg single, CDK inhibitor intravenous injection 125 mg/kg single, 24 h before, cycle 7 days
  Relative remission rate: 10%
[3]; Example 358, Etoposide and cisplatin intravenous injection 50 (E) 5 (Cis) mg/kg single, CDK inhibitor oral 125 mg/kg single, 24 h before, cycle 7 days
  Relative remission rate: 40%
[3]; Example 366, Carboplatin (CBP) oral administration 200 mg/kg single, CDK inhibitor intravenous injection 150 mg/kg single, 24 h before, cycle 10 days
  Relative remission rate: 10%
[3]; Example 366, Carboplatin (CBP) oral administration 200 mg/kg single, CDK inhibitor oral 150 mg/kg single, 24 h before, cycle 10 days
  Relative remission rate: 50%
[3]; Example 378, Gemcitabine (GEM) intravenous injection 120 mg/kg single, CDK inhibitor intravenous injection 200 mg/kg single, 12 h before, cycle 8 days
  Relative remission rate: 10%
[3]; Example 378, Gemcitabine (GEM) intravenous injection 120 mg/kg single, CDK inhibitor oral 200 mg/kg single, 12 h before, cycle 8 days
  Relative remission rate: 50%
[3]; Example 379, Gemcitabine (GEM) intravenous injection 120 mg/kg single, CDK inhibitor intravenous injection 200 mg/kg single, 12 h before, cycle 8 days
  Relative remission rate: 20%
[3]; Example 379, Gemcitabine (GEM) intravenous injection 120 mg/kg single, CDK inhibitor oral 200 mg/kg single, 12 h before, cycle 8 days
  Relative remission rate: 60%
